Source: US20250275976A1, “Methods of Treating Neuroinflammatory Conditions” (Athira Pharma, Inc., priority 2022, published 2025)
“Also recorded” adds a separate entry of the source. Like-named read-outs stand apart in the source and are kept apart here. Square brackets hold non-standard residues; d marks the D form. Peptide text beside a SMILES is read from it. * marks the point of attachment. Hexanoyl = CCCCCC(=O)*; Ahx = NCCCCCC(=O)O

Legend:
[1] = system: Rat primary cortical neuron cultures; test: Neuroprotection of rat primary cortical neurons against neurotoxic insults (Cell Titer-Glo viability); type: cell-based
Excerpt: HGF/MET signaling activation is expected to protect cells, including neurons, from cell death. […] Hydrogen peroxide (H2O2) treatment produces toxic oxidative stress. Bacteria-derived lipopolysaccharide (LPS) treatment induces inflammatory cell death. Treatment with excess glutamate (Glut) produces excitotoxicity in neuron cultures. Treatment with 1-methyl-4-phenylpyridinium (MPP^+) causes cell death by inhibition of mitochondrial function.
Cells were then subjected to individual conditional insults for 24 hours at the following concentrations: H2O2 at 1 uM, LPS at 1 uM, glutamate at 25 uM, or MPP+ at 500 uM. All treatments contained recombinant human HGF (R&D Systems) at a concentration of 5 ng/ml. MK-801 (Dizocilpine) is a pore blocker of the N-Methyl-D-aspartate (NMDA) receptor, a glutamate receptor, and was used as a positive control.
Data was normalized to DMSO+HGF control set at 100% cell viability.
Data are reported as statistical significance vs. insult control, with NS=not significant, +=p<0.05, ++=p<0.01, and +++=p<0.001.

male CD-1 mice = test: T-maze spontaneous alternation, LPS-induced cognitive deficit; type: in vivo, mouse; details: for Spontaneous alternation (%) Mean: LPS 250 μg/kg i.p.; for Recovery (%): saline/vehicle = 100%, LPS/vehicle = 0%
Excerpt: Encephalitis refers to inflammation of the brain that may result in brain swelling fever, headache, confusion, and seizures. The source of neuroinflammation can vary widely, including due to viral, bacterial, parasitic, or fungal infection or due to autoimmune diseases. Lipopolysaccharide (LPS) is a bacterial endotoxin that induces an intense neuroinflammatory reaction and has been associated with cognitive decline. The ability of Compound A19 to reverse cognitive decline induced by LPS in a mouse model of encephalitis was studied using a T-maze assay. In a separate substantially similar assay, Compounds 1a and 5a were also assessed.
Spontaneous and continuous alternation is the innate tendency of rodents to alternate free choices in a T-maze (T-CAT) over a series of successive runs. This sequential procedure relies on working memory and is sensitive to various pharmacological manipulations affecting memory processes. The present studies were conducted to evaluate the abilities of Compound A19, Compound 1a and Compound 5a to reverse LPS-induced cognitive deficit in the T-maze assay.
Compound A19 was dissolved in 0.9% NaCl (saline) and vortexed periodically until complete dissolution and with the pH adjusted between 7.4 and 7.8. Compound A19 was used in concentrations of 0.125, 0.1, 0.05, 0.025 and 0.0125 mg/ml which when given in a volume of 10 ml/kg result in doses of 1.25, 1, 0.5, 0.25 and 0.125 mg/kg, respectively. Compound 1a was dissolved at 160 mg/ml in 100% DMSO and vortexed until complete dissolution. Then the above stock solution was diluted in 20% PEG-400 and 78% 0.9% NaCl, whereby the stock solution comprised 2% of the final solution. Compound 1a was used in concentrations of 0.05, 0.2, 0.8, 1.6 and 3.2 mg/ml which when given in a volume of 10 ml/kg result in doses of 0.5, 2, 8, 16 and 32 mg/kg, respectively. Compound 5a was dissolved at 100 mg/ml in 100% DMSO and vortexed until complete dissolution. Then the above stock solution was diluted in 20% PEG-400 and 78% 0.9% NaCl, whereby the stock solution comprised 2% of the final solution. Compound 5a was used in concentrations of 0.125, 0.25, 0.5, 1 and 2 mg/ml which when given in a volume of 10 ml/kg result in doses of 1.25, 2.5, 5, 10 and 20 mg/kg, respectively.
Memantine was dissolved in saline. Memantine was used in concentration of 0.1 and 0.01 mg/ml, which when given in a volume of 10 ml/kg result in a dose of 1 and 0.1 mg/kg, respectively. Memantine is approved for symptomatic treatment of Alzheimer's disease was used as a reference compound.
LPS was dissolved in saline and prepared at a concentration of 0.0125 mg/ml and given intraperitoneally (i.p.) at a dosage volume of 20 ml/kg to yield a dose of 0.25 mg/kg ([…]).
Four to five weeks old male CD-1 mice (Janvier; Le Genest St Isle - France) were used for the study.
LPS was injected i.p. 2 weeks prior the T-maze trial. Compound 1a was tested at doses of 0.5, 2, 8, 16, and 32 mg/kg administered orally (p.o.) for 14 days with last treatment given 60 min before the T-maze trial. Compound 5a was tested at the doses of 1.25, 2.5, 5, 10, and 20 mg/kg administered orally (p.o.) for 14 days with last treatment given 60 min before the T-maze trial. LPS was injected i.p. 2 weeks prior the T-maze trial.
The T-maze apparatus was made of gray Plexiglas with a main stem (55 cm long×10 cm wide×20 cm high) and two arms (30 cm long×10 cm wide×20 cm high) positioned at a 90-degree angle relative to the main stem. A start box (15 cm long×10 cm wide) was separated from the main stem by a guillotine door. Horizontal doors were also provided to close specific arms during the force choice alternation task.
The experimental protocol consisted of a single session, which started with one “forced-choice” trial, followed by 14 “free-choice” trials. In the “forced-choice” trial, the animal was confined 5 seconds in the start arm and was then released while either the left or right goal arm was blocked by a horizontal door. […]

[2] = system: Rat primary cortical neuron cultures; details: LPS 24 h
Description: To assess the neuroprotective effect of compound treatment against inflammatory insult, primary cultured cortical neurons were subjected to lipopolysaccharide (LPS) treatment for 24h along with various compound doses of compounds of Formula (I) or Compound A19. […] Rat primary cortical neuron cultures were grown at 37° C., 5% C02 in Complete Neurobasal Medium supplemented with B27/GDNF/BDNF containing 10% FBS until maturity. 25 μl of culture volume were seeded in a 384-well plate at 5,000 cells/well, and treated with 1 μM, 100 nM, 10 nM, 1 nM, or 0.1 nM of test compound for 15 minutes. Cells were then subjected to 1 μM LPS challenge for 24 hours. Luminescence measurements to assess relative levels of ATP were performed on an Envision plate reader (Perkin Elmer). Data for DMSO control were set to 100% cell viability, and each group (n=4) were averaged and presented as mean±SEM.

**Q.** What does the source list for CCCCCC(=O)N[C@@H](Cc1ccc(O)cc1)C(=O)N[C@H](C(=O)NCCCCCC(N)=O)[C@@H](C)CC [Compound A19 active metabolite, dihexa] (Hexanoyl-Tyr-Ile-[Ahx]-NH2)?
**A.** Statistical significance vs. insult control (cell viability) ([1]; Glutamate (25 uM) insult, [Compound A19 active metabolite] 0.1 nM + HGF (5 ng/ml)): + (+ = p < 0.05); Statistical significance vs. insult control (cell viability) ([1]; Glutamate (25 uM) insult, [Compound A19 active metabolite] 1 nM + HGF (5 ng/ml)): ++ (++ = p < 0.01); Statistical significance vs. insult control (cell viability) ([1]; Glutamate (25 uM) insult, [Compound A19 active metabolite] 100 nM (second column headed 100 nM) + HGF (5 ng/ml)): + (+ = p < 0.05); Statistical significance vs. insult control (cell viability) ([1]; Glutamate (25 uM) insult, [Compound A19 active metabolite] 100 nM + HGF (5 ng/ml)): + (+ = p < 0.05); Statistical significance vs. insult control (cell viability) ([1]; H2O2 (1 uM) insult, [Compound A19 active metabolite] 0.1 nM + HGF (5 ng/ml)): +++ (+++ = p < 0.001); Statistical significance vs. insult control (cell viability) ([1]; H2O2 (1 uM) insult, [Compound A19 active metabolite] 1 nM + HGF (5 ng/ml)): +++ (+++ = p < 0.001); Statistical significance vs. insult control (cell viability) ([1]; H2O2 (1 uM) insult, [Compound A19 active metabolite] 100 nM (second column headed 100 nM) + HGF (5 ng/ml)): +++ (+++ = p < 0.001); Statistical significance vs. insult control (cell viability) ([1]; H2O2 (1 uM) insult, [Compound A19 active metabolite] 100 nM + HGF (5 ng/ml)): +++ (+++ = p < 0.001); Statistical significance vs. insult control (cell viability) ([1]; H2O2 (1 uM) insult, [Compound A19 active metabolite] 1 uM + HGF (5 ng/ml)): +++ (+++ = p < 0.001); Neuroprotection against the cohort of insults (result in words) ([1]; H2O2, glutamate, LPS, MPP+, broad range of concentrations): effective neuroprotective treatment at a broad range of concentrations against the entire cohort of insults tested; Statistical significance vs. insult control (cell viability) ([1]; LPS (1 uM) insult, [Compound A19 active metabolite] 0.1 nM + HGF (5 ng/ml)): ++ (++ = p < 0.01); Statistical significance vs. insult control (cell viability) ([1]; LPS (1 uM) insult, [Compound A19 active metabolite] 1 nM + HGF (5 ng/ml)): ++ (++ = p < 0.01); Statistical significance vs. insult control (cell viability) ([1]; LPS (1 uM) insult, [Compound A19 active metabolite] 100 nM (second column headed 100 nM) + HGF (5 ng/ml)): +++ (+++ = p < 0.001); Statistical significance vs. insult control (cell viability) ([1]; LPS (1 uM) insult, [Compound A19 active metabolite] 100 nM + HGF (5 ng/ml)): ++ (++ = p < 0.01); Statistical significance vs. insult control (cell viability) ([1]; LPS (1 uM) insult, [Compound A19 active metabolite] 1 uM + HGF (5 ng/ml)): ++ (++ = p < 0.01); Statistical significance vs. insult control (cell viability) ([1]; MPP+ (500 uM) insult, [Compound A19 active metabolite] 0.1 nM + HGF (5 ng/ml)): +++ (+++ = p < 0.001); Statistical significance vs. insult control (cell viability) ([1]; MPP+ (500 uM) insult, [Compound A19 active metabolite] 1 nM + HGF (5 ng/ml)): +++ (+++ = p < 0.001); Statistical significance vs. insult control (cell viability) ([1]; MPP+ (500 uM) insult, [Compound A19 active metabolite] 100 nM (second column headed 100 nM) + HGF (5 ng/ml)): +++ (+++ = p < 0.001); Statistical significance vs. insult control (cell viability) ([1]; MPP+ (500 uM) insult, [Compound A19 active metabolite] 100 nM + HGF (5 ng/ml)): +++ (+++ = p < 0.001); Statistical significance vs. insult control (cell viability) ([1]; MPP+ (500 uM) insult, [Compound A19 active metabolite] 1 uM + HGF (5 ng/ml)): +++ (+++ = p < 0.001)

**Q.** How did the “Reversal of LPS-induced cognitive deficit in T-maze (result in words)” value (male CD-1 mice; ANOVA, Fisher's PLSD, p<0.05, doses as in the value) turn out when CCC(C)CN1CC2N(Cc3ccc(C(F)(F)F)cc3)CCC(=O)N2[C@@H](C)C1=O (some centres unmarked) [Compound 5a] was run?
**A.** significant reversal of LPS-induced cognitive deficits at all doses; also recorded: reversed the LPS-induced cognitive disruption

**Q.** What about the “Spontaneous alternation (%) Mean” value (male CD-1 mice; Compound 5a 1.25 mg/kg p.o. daily 14 days) of the same compound?
**A.** 59%

**Q.** What about the “Spontaneous alternation (%) Mean” value (male CD-1 mice; Compound 5a 1.25 mg/kg p.o. daily 14 days, listed as Cmpd 5a) of the same compound?
**A.** 59.3%

**Q.** And the “Recovery (%)” value (male CD-1 mice; Compound 5a 1.25 mg/kg p.o.)?
**A.** 58%

**Q.** What about the “Spontaneous alternation (%) Mean” value (male CD-1 mice; Compound 5a 2.5 mg/kg p.o. daily 14 days) of the same compound?
**A.** 58%

**Q.** What about the “Spontaneous alternation (%) Mean” value (male CD-1 mice; Compound 5a 2.5 mg/kg p.o. daily 14 days, listed as Cmpd 5a) of the same compound?
**A.** 57.9%

**Q.** What about the “Recovery (%)” value (male CD-1 mice; Compound 5a 2.5 mg/kg p.o.) of the same compound?
**A.** 53%

**Q.** And the “Spontaneous alternation (%) Mean” value (male CD-1 mice; Compound 5a 5 mg/kg p.o. daily 14 days)?
**A.** 61%

**Q.** What about the “Spontaneous alternation (%) Mean” value (male CD-1 mice; Compound 5a 5 mg/kg p.o. daily 14 days, listed as Cmpd 5a) of the same compound?
**A.** 60.7%

**Q.** And the “Recovery (%)” value (male CD-1 mice; Compound 5a 5 mg/kg p.o.)?
**A.** 64%

**Q.** What about the “Spontaneous alternation (%) Mean” value (male CD-1 mice; Compound 5a 10 mg/kg p.o. daily 14 days) of the same compound?
**A.** 58%

**Q.** What about the “Spontaneous alternation (%) Mean” value (male CD-1 mice; Compound 5a 10 mg/kg p.o. daily 14 days, listed as Cmpd 5a) of the same compound?
**A.** 57.9%

**Q.** What about the “Recovery (%)” value (male CD-1 mice; Compound 5a 10 mg/kg p.o.) of the same compound?
**A.** 53%

**Q.** What about the “Spontaneous alternation (%) Mean” value (male CD-1 mice; Compound 5a 20 mg/kg p.o. daily 14 days) of the same compound?
**A.** 60%

**Q.** And the “Spontaneous alternation (%) Mean” value (male CD-1 mice; Compound 5a 20 mg/kg p.o. daily 14 days, listed as Cmpd 5a)?
**A.** 60.0%

**Q.** What about the “Recovery (%)” value (male CD-1 mice; Compound 5a 20 mg/kg p.o.) of the same compound?
**A.** 61%

**Q.** And the “Significance of neuroprotection vs 1 uM LPS” value (from here on “Significance … vs 1 uM LPS”) ([2]; dose 0.1 nM)?
**A.** +++ (+++ indicates p<0.001)

**Q.** And the “Significance … vs 1 uM LPS” value ([2]; dose 1 nM)?
**A.** +++ (+++ indicates p<0.001)

**Q.** And the “Significance … vs 1 uM LPS” value ([2]; dose 10 nM)?
**A.** +++ (+++ indicates p<0.001)

**Q.** And the “Significance … vs 1 uM LPS” value ([2]; dose 100 nM)?
**A.** +++ (+++ indicates p<0.001)

**Q.** And the “Significance … vs 1 uM LPS” value ([2]; dose 1 μM)?
**A.** +++ (+++ indicates p<0.001)
